Data on 53 compounds can be found in ChEMBL document CHEMBL3044594, “Comparison of the inhibitory action of synthetic capsaicin analogues with various NADH-ubiquinone oxidoreductases” (Biochim Biophys Acta, 1996).

Active and inactive are the calls of the source. No cut-off for these calls is given here.

Experiment [1] deals with Solanum tuberosum. The experiment can be described thus: Inhibition of Solanum tuberosum (potato) inner mitochondrial membrane NDH2 assessed as […] reductase activity at 100 uM relative to control.
In another experiment the test system is Escherichia coli. The experiment can be described thus: Inhibition of Escherichia coli GR19N NDH2 assessed as […] reductase activity at 100 uM relative to control.
The subject of experiment [2] is Solanum tuberosum. Put plainly: Inhibition of Solanum tuberosum (potato) submitochondrial particle NDH1 assessed as deaminoNADH-DB reductase activity.

For the compound `COc1ccc(CNC(=O)c2ccccc2)cc1OC`, the inhibition result with Solanum tuberosum [1] and in the experiment on Escherichia coli was “inactive” each time. Also, the pI50 entry with Solanum tuberosum [2] is “inactive”.

On to `Cc1nn(C)c(Oc2ccccc2)c1/C=N/OCc1ccc(C(=O)OC(C)(C)C)cc1`, for which the inhibition in the experiment with Escherichia coli was 60%.

For `CCCCCCCCCCCC(=O)NCc1ccc(O)c(OC)c1`, in the experiment with Solanum tuberosum [1], the inhibition entry was “inactive”. For the same compound, the inhibition in the experiment on Escherichia coli was determined as 70%. The pI50 entry in the experiment with Solanum tuberosum [2] was “inactive”.

As to `COc1ccc(CNC(=O)c2ccc(Oc3ccccc3C)cc2)cc1OC`, in the experiment on Escherichia coli, the inhibition came out at 90%. Further, in the experiment with Solanum tuberosum [2], the pI50 result is “inactive”.

Take `CCCCCCCCCCNC(=O)CCc1ccc(OC)c(OC)c1`: the inhibition entry in the experiment on Solanum tuberosum [1] was “inactive”. Moreover, the inhibition in the experiment with Escherichia coli came to 40%.

For `CCCCCCCCCCCC(=O)NCc1ccc(OC)cc1OC`, the inhibition result in the experiment with Solanum tuberosum [1] and with Escherichia coli was “inactive” each time.

As for `CCCCCCCCCCCC(=O)NCc1cc(OC)ccc1OC`, the inhibition with Solanum tuberosum [1] worked out at 100%. The inhibition entry with Escherichia coli is “inactive”.

Regarding `CCCCCCCCCCCCC(=O)Nc1ccc(OC)c(OC)c1`, the inhibition result in the experiment with Solanum tuberosum [1] and with Escherichia coli was “inactive” each time.

As to `CCC(C)(C)c1ccc(Oc2ccc(C(=O)NCc3ccc(OC)c(OC)c3)cc2)cc1`, the inhibition in the experiment on Escherichia coli was 60%.

Turning to `COc1ccc(CNCc2ccc(Oc3ccc(C(C)(C)C)cc3)cc2)cc1OC`, in the experiment with Solanum tuberosum [1], the inhibition result is “inactive”. Besides, the inhibition in the experiment on Escherichia coli came out at 60%.

As to `COc1ccc(CN(C)C(=O)c2ccc(Oc3ccc(C(C)(C)C)cc3)cc2)cc1OC`, in the experiment with Solanum tuberosum [1], the inhibition result is “inactive”. Also, in the experiment on Escherichia coli, the inhibition stood at 40%.

Take `CCCCCCCCCCC(=O)NCCc1ccc(OC)c(OC)c1`: the inhibition result in the experiment with Solanum tuberosum [1] and in the experiment on Escherichia coli was “inactive” in each case.

As to `CCCCCCCCCCCC(=O)N(C)Cc1cc(OC)ccc1OC`, the inhibition in the experiment with Escherichia coli worked out at 30%.

On to `CCCCCCCCCCCC(=O)NCc1cc(OC)cc(OC)c1`, for which the inhibition result in the experiment with Solanum tuberosum [1] and in the experiment with Escherichia coli was “inactive” each time.

`COc1ccc(CNC(=O)c2ccccc2C)cc1OC`: the inhibition result with Solanum tuberosum [1] and with Escherichia coli was “inactive” in each case. Also, the pI50 result in the experiment on Solanum tuberosum [2] is “inactive”.

In the case of `CCCCCCCCc1ccc(C(=O)NCc2ccc(OC)c(OC)c2)cc1`, the inhibition entry with Solanum tuberosum [1] is “inactive”. The inhibition in the experiment with Escherichia coli was 50%.

As to `CCCCCCCCCCCC(=O)NCc1ccccc1OC`, the inhibition result in the experiment on Solanum tuberosum [1] and in the experiment on Escherichia coli was “inactive” in each case.

As to `COc1ccc(CNC(=O)c2cccc3ccccc23)cc1OC`, the inhibition result in the experiment on Solanum tuberosum [1] and in the experiment with Escherichia coli was “inactive” in each case.

In the case of `COc1cc(CNC(=O)CCCC/C=C/C(C)C)ccc1O`, the inhibition entry with Solanum tuberosum [1] was “inactive”. The inhibition in the experiment with Escherichia coli came out at 20%.

Turning to `CCCCCCCCCCCC(=O)N(C)Cc1ccc(OC)c(OC)c1`, the inhibition result with Escherichia coli was “inactive”.

With `C=C(C)[C@H]1Cc2c(ccc3c2O[C@@H]2COc4cc(OC)c(OC)cc4[C@@H]2C3=O)O1`, in the experiment with Solanum tuberosum [1], the inhibition entry is “inactive”. Besides, the inhibition in the experiment with Escherichia coli was 70%.

Regarding `CCCCCCCCc1ccc(C(=O)NCc2cc(OC)ccc2OC)cc1`, the inhibition in the experiment with Escherichia coli came to 60%.

On to `CCCCCCCCCCCC(=O)NCc1ccc(Cl)c(Cl)c1`, for which the inhibition entry in the experiment on Solanum tuberosum [1] is “inactive”. Moreover, the inhibition in the experiment with Escherichia coli was 70%.

In the case of `CCCCCCCCCCCC(=O)NCc1ccc(OC)c(OC)c1`, the inhibition entry in the experiment on Escherichia coli was “inactive”.

Take `COc1ccc(CNC(=O)c2ccc(C)cc2)cc1OC`: the inhibition entry in the experiment with Solanum tuberosum [1] and with Escherichia coli was “inactive” throughout.

For the compound `CCCCCCCCCC(=O)NCCCc1ccc(OC)c(OC)c1`, the inhibition result with Solanum tuberosum [1] is “inactive”. Moreover, in the experiment on Escherichia coli, the inhibition was 40%. In addition, the pI50 entry with Solanum tuberosum [2] was “inactive”.

With `COc1ccc(CNC(=O)c2ccc(-c3ccccc3)cc2)cc1OC`, the inhibition entry in the experiment on Solanum tuberosum [1] and in the experiment on Escherichia coli was “inactive” throughout.

Regarding `CCCCCCCCCCCC(=O)NCc1ccc(OC)cc1`, the inhibition in the experiment on Solanum tuberosum [1] amounted to 100%; with Escherichia coli it was 80%.

Take `CCCCCCCCCCCC(=O)NCc1ccc2c(c1)OCO2`: in the experiment on Solanum tuberosum [1], the inhibition result is “inactive”. Besides, in the experiment on Escherichia coli, the inhibition is 60%.

For `COc1ccc(OC)c(CNC(=O)c2ccc(Oc3ccc(C(C)(C)C)cc3)cc2)c1`, the inhibition in the experiment with Escherichia coli amounted to 60%.

On to `CCCCCCCCCCOc1ccc(C(=O)NCc2ccc(OC)c(OC)c2)cc1`, for which, in the experiment on Solanum tuberosum [1], the inhibition entry was “inactive”. Moreover, in the experiment with Escherichia coli, the inhibition came out at 70%. Further, in the experiment with Solanum tuberosum [2], the pI50 entry was “inactive”.

On to `CCCCCCCCCCCC(=O)NCc1cccc(OC)c1OC`, for which the inhibition entry in the experiment with Solanum tuberosum [1] and in the experiment on Escherichia coli was “inactive” each time.

With `CCCCCCCOc1ccc(C(=O)NCc2ccc(OC)c(OC)c2)c(O)c1`, the inhibition in the experiment with Solanum tuberosum [1] was determined as 30%; in the experiment on Escherichia coli it was 90%.

With `CCCCCCCCCCCCNCc1ccc(OC)c(OC)c1`, in the experiment on Escherichia coli, the inhibition result was “inactive”.

Turning to `CCCCCCCCc1ccc(C(=O)N(C)Cc2ccc(OC)c(OC)c2)cc1`, the inhibition in the experiment on Escherichia coli stood at 60%.

For the compound `CCCCCCCCCCCC(=O)N1CCc2cc(OC)c(OC)cc2C1`, the inhibition entry in the experiment on Escherichia coli was “inactive”.

`CCCCCCCCCCCC(=O)NCc1ccc(C)c(C)c1`: the inhibition entry in the experiment on Solanum tuberosum [1] is “inactive”. In addition, the inhibition in the experiment on Escherichia coli stood at 60%.

For `COc1ccc(CNC(=O)c2ccc(Oc3ccc(C(C)(C)C)cc3)cc2)cc1OC`, the figures for the inhibition in the experiment with Solanum tuberosum [1] and in the experiment on Escherichia coli were 100% and 60%, respectively.

Turning to `C/C=C(\C)[C@H](O)[C@H](C)/C=C(C)/C=C/C/C(C)=C/Cc1nc(OC)c(OC)c(O)c1C`, the inhibition in the experiment on Escherichia coli is 50%.

With `CCCCCCCCCCCNC(=O)Cc1ccc(OC)c(OC)c1`, the inhibition result with Solanum tuberosum [1] and in the experiment on Escherichia coli was “inactive” in each case.

Regarding `CCCCc1ccc(Oc2ccc(C(=O)NCc3ccc(OC)c(OC)c3)cc2)cc1`, in the experiment with Solanum tuberosum [1], the inhibition result was “inactive”. Moreover, the inhibition in the experiment on Escherichia coli worked out at 60%.

Consider `COc1ccc(CNC(=O)c2ccc3ccccc3c2)cc1OC`, for which the inhibition entry in the experiment on Solanum tuberosum [1] and with Escherichia coli was “inactive” in each case.

`CCCCCCCCCCCC(=O)NCc1cc(C)ccc1C`: in the experiment on Solanum tuberosum [1], the inhibition result was “inactive”. Further, the inhibition in the experiment on Escherichia coli is 60%.

Regarding `CCCCCCCCCCCCNC(=O)c1ccc(OC)c(OC)c1`, the inhibition entry in the experiment with Solanum tuberosum [1] and in the experiment with Escherichia coli was “inactive” throughout.

Turning to `CCCCc1ccc(C(=O)NCc2ccc(OC)c(OC)c2)cc1`, the inhibition entry in the experiment with Solanum tuberosum [1] and in the experiment on Escherichia coli was “inactive” in each case. In the experiment with Solanum tuberosum [2], the pI50 result is “inactive”.

As for `CCCCCCCOc1cccc(C(=O)NCc2ccc(OC)c(OC)c2)c1`, the inhibition entry in the experiment on Solanum tuberosum [1] is “inactive”. Further, in the experiment with Escherichia coli, the inhibition stood at 60%.

For the compound `COc1ccc(CNC(=O)c2ccc(Oc3ccc(Cc4ccccc4)cc3)cc2)cc1OC`, the inhibition entry in the experiment on Solanum tuberosum [1] was “inactive”. Also, the inhibition in the experiment with Escherichia coli is 50%.

Regarding `COc1ccc(CNC(=O)c2ccc(OCc3ccccc3)cc2)cc1OC`, the inhibition entry in the experiment on Solanum tuberosum [1] and with Escherichia coli was “inactive” throughout. For the same compound, the pI50 result with Solanum tuberosum [2] was “inactive”.

As to `COc1ccc(CNC(=O)c2ccc(Oc3ccc(C)cc3)cc2)cc1OC`, the inhibition result in the experiment on Solanum tuberosum [1] and with Escherichia coli was “inactive” in each case. In the experiment with Solanum tuberosum [2], the pI50 entry is “inactive”.

With `CCCCCCCOc1ccc(C(=O)NCc2ccc(OC)c(OC)c2)cc1`, the inhibition entry with Solanum tuberosum [1] is “inactive”. In the experiment with Escherichia coli, the inhibition came out at 60%.

Consider `CCCCCCCCCCCC(=O)NCc1cccc(OC)c1`, for which the inhibition in the experiment on Solanum tuberosum [1] worked out at 60%. The inhibition entry with Escherichia coli was “inactive”.

Take `CCCCCCCCCCCC(=O)NCc1ccccc1`: the inhibition result with Solanum tuberosum [1] and in the experiment with Escherichia coli was “inactive” each time.

For `COc1ccc(CNC(=O)c2ccc(C(C)(C)C)cc2)cc1OC`, the inhibition entry in the experiment on Solanum tuberosum [1] and in the experiment with Escherichia coli was “inactive” in each case. Also, the pI50 result with Solanum tuberosum [2] was “inactive”.
